Measurements published in US10138227B2, “Heteroaryl substituted pyridines and methods of use” (AbbVie S.à.r.l., priority 2016, dated 2018).

Molecular target: T1, CFTR ΔF508 mutant (Homo sapiens, UniProt P13569, DEL508-508)
T1 construct: expressed in transfected cells; host or cells: CFBE41o- cells transduced with adenoviral vectors
Assay: YFP-halide influx assay for the CFTR-ΔF508 mutation
Type: cell-based
Conditions: CFBE41o- cells expressing CFTR ΔF508 and YFP reporter, forskolin 10.67 μM; for EC50: (1-F/F0) vs concentration
From the text: The YFP halide influx assay measured the functionality of the cystic fibrosis Transmembrane Conductance regulator (CFTR) channels in the cystic fibrosis bronchial epithelium cell line CFBE41o-. The assay was used to evaluate the capacity of compounds to increase the open probability of existing CFTR channels in the membrane. It makes use of the observation that the yellow fluorescent protein (YFP) variant YFP H148Q, I152L, F47L has its fluorescence substantially quenched by halide ions like Cl^− and I^− (Galietta, L. J. V., Haggie, P. M., Verkman, A. S., 2001. Green fluorescent protein-based halide indicators with improved chloride and iodide affinities. FEBS Lett. 499, 220-224. doi:10.1016/S0014-5793(01)02561-3; Nagai, T., Ibata, K., Park, E. S., Kubota, M., Mikoshiba, K., Miyawaki, A., 2002. A variant of yellow fluorescent protein with fast and efficient maturation for cell-biological applications. Nat. Biotechnol. 20, 87-90. doi:10.1038/nbt0102-87).
For this purpose, CFBE410-cells were seeded in 384 well plates (3000 CFBE cells/well). One day after seeding, the CFBE cells were transduced with adenoviral vectors that direct the expression of the CFTR ΔF508 mutant and of the YFP reporter. Cells were incubated at 27° C., 5% CO2 for 24 hours so as to allow for the proper folding and migration to the membrane of the CFTR channel or treated with a CFTR modulator during 24 hours at 37° C.
The I-induced quenching of fluorescence was recorded on an immediately after injection of iodide for 2 minutes on an FDSS/μCell (Hamamatsu). The capacity of a compound to increase the channel opening was directly correlated with the decrease in fluorescence, and was expressed as (1-(fluorescence after 36 seconds (F)/fluorescence before injection (F0))) and an EC50 was derived from a (1-F/F0) vs compound concentration plot.

T1 sequence (P13569 with tags, fused parts or gaps DEL508-508): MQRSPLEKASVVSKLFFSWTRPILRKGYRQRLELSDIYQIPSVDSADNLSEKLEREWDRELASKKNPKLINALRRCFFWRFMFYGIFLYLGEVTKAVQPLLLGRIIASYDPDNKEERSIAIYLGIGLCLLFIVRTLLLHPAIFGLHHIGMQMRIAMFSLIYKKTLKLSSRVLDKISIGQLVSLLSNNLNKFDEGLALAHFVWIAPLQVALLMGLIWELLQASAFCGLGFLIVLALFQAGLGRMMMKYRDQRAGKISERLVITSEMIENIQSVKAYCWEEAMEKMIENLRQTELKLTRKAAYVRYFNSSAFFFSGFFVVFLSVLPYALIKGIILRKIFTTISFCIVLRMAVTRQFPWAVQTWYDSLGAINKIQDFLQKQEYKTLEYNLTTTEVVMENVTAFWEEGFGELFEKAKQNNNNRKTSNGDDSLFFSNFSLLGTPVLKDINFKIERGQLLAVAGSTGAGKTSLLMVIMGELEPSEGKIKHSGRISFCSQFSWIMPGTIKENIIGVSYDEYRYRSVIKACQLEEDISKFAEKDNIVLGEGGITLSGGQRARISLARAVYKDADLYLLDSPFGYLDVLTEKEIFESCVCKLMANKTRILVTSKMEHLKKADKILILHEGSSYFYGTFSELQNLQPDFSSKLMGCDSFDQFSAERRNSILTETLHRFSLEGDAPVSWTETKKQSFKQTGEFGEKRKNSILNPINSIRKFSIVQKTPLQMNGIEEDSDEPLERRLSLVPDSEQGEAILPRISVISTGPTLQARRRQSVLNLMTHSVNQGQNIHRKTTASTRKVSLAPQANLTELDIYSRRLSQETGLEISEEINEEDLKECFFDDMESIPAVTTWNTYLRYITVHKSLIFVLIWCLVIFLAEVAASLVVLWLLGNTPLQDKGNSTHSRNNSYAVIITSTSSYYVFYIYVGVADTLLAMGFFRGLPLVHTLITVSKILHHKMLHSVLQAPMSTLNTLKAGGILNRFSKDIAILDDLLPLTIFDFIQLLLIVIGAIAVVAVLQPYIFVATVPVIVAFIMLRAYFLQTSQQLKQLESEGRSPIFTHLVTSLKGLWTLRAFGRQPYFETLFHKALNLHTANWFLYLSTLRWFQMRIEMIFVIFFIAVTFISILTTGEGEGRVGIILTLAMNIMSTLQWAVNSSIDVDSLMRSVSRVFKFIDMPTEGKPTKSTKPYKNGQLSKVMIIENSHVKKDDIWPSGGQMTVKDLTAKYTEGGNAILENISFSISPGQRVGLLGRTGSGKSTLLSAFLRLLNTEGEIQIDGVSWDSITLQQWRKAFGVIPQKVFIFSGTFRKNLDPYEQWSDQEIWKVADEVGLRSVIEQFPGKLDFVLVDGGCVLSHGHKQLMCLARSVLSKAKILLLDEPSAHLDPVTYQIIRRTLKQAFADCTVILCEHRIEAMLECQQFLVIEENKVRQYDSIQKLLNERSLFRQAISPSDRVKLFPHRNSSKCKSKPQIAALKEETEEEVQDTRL

| SMILES | % Activation [%] | EC50 [nM] |
| --- | --- | --- |
| COCCc1noc(-c2ncc(S(=O)(=O)c3ccc(OC(F)(F)F)cc3)cc2N)n1 [Compound 55, 2-[3-(2-methoxyethyl)-1,2,4-oxadiazol-5-yl]-5-[4-(trifluoromethoxy)benzene-1-sulfonyl]pyridin-3-amine] | 2.76 | > 4990 |
| CCOCc1nnc(-c2ncc(S(=O)(=O)c3ccc(OC(F)(F)F)cc3)cc2N)o1 [Compound 36, 2-[5-(ethoxymethyl)-1,3,4-oxadiazol-2-yl]-5-[4-(trifluoromethoxy)benzene-1-sulfonyl]pyridin-3-amine] | 102.93 | 12.3 |
| COC(C)c1noc(-c2ncc(S(=O)(=O)c3ccc(OC(F)(F)F)cc3)cc2N)n1 (stereo not drawn) [Compound 47, 2-[3-(1-methoxyethyl)-1,2,4-oxadiazol-5-yl]-5-[4-(trifluoromethoxy)benzene-1-sulfonyl]pyridin-3-amine] | 59.4 | > 1660 |
| Nc1cc(S(=O)(=O)c2ccc(OC(F)(F)F)cc2)cnc1-c1nnc(COCC2CC2)o1 [Compound 12, 2-{5-[(cyclopropylmethoxy)methyl]-1,3,4-oxadiazol-2-yl}-5-[4-(trifluoromethoxy)benzene-1-sulfonyl]pyridin-3-amine] | 100.38 | 8.52 |
| C[C@@](O)(c1nnc(-c2ncc(S(=O)(=O)c3ccc(OC(F)(F)F)cc3)cc2N)s1)C(F)(F)F [Compound 20, (2S)-2-(5-{3-amino-5-[4-(trifluoromethoxy)benzene-1-sulfonyl]pyridin-2-yl}-1,3,4-thiadiazol-2-yl)-1,1,1-trifluoropropan-2-ol] | 97.45 | 8.12 |
| Nc1cc(S(=O)(=O)c2ccc(OC(F)(F)F)cc2)cnc1-c1nnc(COC(F)F)s1 [Compound 30, 2-{5-[(difluoromethoxy)methyl]-1,3,4-thiadiazol-2-yl}-5-[4-(trifluoromethoxy)benzene-1-sulfonyl]pyridin-3-amine] | 94.98 | 3.61 |
| Nc1cc(S(=O)(=O)c2ccc(OC(F)(F)F)cc2)cnc1-c1nc(C2CCOC2)no1 (stereo not drawn) [Compound 53, 2-[3-(oxolan-3-yl)-1,2,4-oxadiazol-5-yl]-5-[4-(trifluoromethoxy)benzene-1-sulfonyl]pyridin-3-amine] | 15.28 | > 4990 |
| Nc1cc(S(=O)(=O)c2ccc(OC(F)(F)F)cc2)cnc1-c1nnc(C[C@H]2CCCO2)o1 [Compound 41, 2-(5-{[(2R)-oxolan-2-yl]methyl}-1,3,4-oxadiazol-2-yl)-5-[4-(trifluoromethoxy)benzene-1-sulfonyl]pyridin-3-amine] | 96.97 | 41.3 |
| COCCOCc1nnc(-c2ncc(S(=O)(=O)c3ccc(OC(F)(F)F)cc3)cc2N)o1 [Compound 33, 2-{5-[(2-methoxyethoxy)methyl]-1,3,4-oxadiazol-2-yl}-5-[4-(trifluoromethoxy)benzene-1-sulfonyl]pyridin-3-amine] | 103.5 | 39.8 |
| COC(C)(C)c1noc(-c2ncc(S(=O)(=O)c3ccc(OC(F)(F)F)cc3)cc2N)n1 [Compound 46, 2-[3-(2-methoxypropan-2-yl)-1,2,4-oxadiazol-5-yl]-5-[4-(trifluoromethoxy)benzene-1-sulfonyl]pyridin-3-amine] | 82.3 | > 1660 |
| CC(C)(O)c1nnc(-c2ncc(S(=O)(=O)c3ccc(OC(F)(F)F)cc3)cc2N)o1 [Compound 43, 2-(5-{3-amino-5-[4-(trifluoromethoxy)benzene-1-sulfonyl]pyridin-2-yl}-1,3,4-oxadiazol-2-yl)propan-2-ol] | 110.8 | < 0.77 |
| Nc1cc(S(=O)(=O)c2ccc(C(F)(F)F)cc2)cnc1-c1nnc(CO)s1 [Compound 62, (5-{3-amino-5-[4-(trifluoromethyl)benzene-1-sulfonyl]pyridin-2-yl}-1,3,4-thiadiazol-2-yl)methanol] | 113 | < 0.44 |
